The record followed here is patent US20050245452A1, “Pharmaceutical use of novispirins” (Novozymes A/S, priority 2004, published 2005).

Ends that are not written are not given here.

For assay [1], the system named is P. acnes (erythromycin resistant). In words: MIC on Propionebacterium acnes, erythromycin resistant strain. The note with it: clinically resistant to clindamycin and erythromycin. It counts as cell-based. Here is the method:
(§1) Minimal Inhibitory Concentration (MIC) of Novispirin G10 (SEQ ID NO: 16) was evaluated against P. acnes. Two strains were tested—one of which is clinically resistant to clindamycin and erythromycin.

The subject of assay [2] is P. acnes (erythromycin sensitive). As to the kind of experiment: MIC on Propionebacterium acnes, erythromycin sensitive strain. The format is cell-based. Here is the method:
as §1

The subject of assay [3] is Staphylococcus aureus (ATCC 25923). In words: Staphylococcus aureus wound infection in pigs (wound chambers, 4 hour time course). It counts as in vivo, Göttinger minipigs. The note with it: 100 micrograms/ml, 1 ml applied. Here is the method: The bacterial strain, Staphylococcus aureus, used in the study was ATCC 25923. The amino acid sequence of Novispirin G10 is shown in SEQ ID NO: 16.
Novispirin G10 was diluted in 0.01% acetic acid containing 0.1% BSA with a final concentration of 1 mg (substrate)/ml (solution); 100 micrograms/ml; 10 micrograms/ml and 1 microgram/ml. The carrier control was 0.01% acetic acid containing 0.1% BSA. As a positive control was used Synthetic Protegrin 1 (Charité, Institut f. Biochemie d. Humboldt Universität Berlin) diluted in 0.01% acetic acid containing 0.1% BSA with a final concentration of 100 micrograms/ml.
The chambers are made of one piece of titanium, have a screw top cover (also made of titanium) and were built in teamwork with Cranio Construct Bochum. The chambers have a height of 14 mm, an inner diameter of 25 mm and an outer diameter of 32 mm without baseplate (with baseplate: 50 mm).
After providing permission to conduct experiments with vertebrates in compliance with German animal protection laws, Göttinger minipigs (Fa. Ellegaard, Dalmose, Denmark; female, 6 months old, 25-30 kg weight) were chosen to implant the chambers on. The pigs were kept at least 2 weeks in the stable, fed a standard porcine diet and housed at 20° C. to 30° C. in an atmosphere of approximately 65% humidity with a light cycle of 12 hours on and 12 hours off. The animals used for this study appeared, during the experiments, clinically healthy—rectal temperature and body weight remained normal over the observed period.
Before wounding the skin was surgically prepared, washed with soap and disinfected with Octenisept (S&M, Norderstedt, Germany) for five minutes. Twelve BO-Chambers were implanted on the pigs back and flank between the base of the scapula and the iliac crest. The wounds were spaced a minimum of 5 cm apart and were created in four rows parallel to the columna vertebralis, two rows on each side of the columna vertebrtalis. The exact size and shape of the wounds were ensured by a special custom-made “round-scalpel” (also built in teamwork with Cranio Construct Bochum), which has a diameter of 33 mm. Epidermal, dermal subcutaneous tissues were removed, possible bleedings stanched by bipolar diathermy. The chambers were placed with an additionally secant v-incision at positions 6 respectively 12 o'clock on the musculus thoracicus longus fascia and the muscle fascia of the external ripcage muscles. The incisions were sutured with 2/0 Monocryl followed by the closure of the chambers. Povidone-iodine salve (Betaisodonna-salve, Mundipharma, Austria) was smothered on the wound edges. The chambers were dressed with paraffin gauze (Jelonet, Smith & Nephew, Lohfelden, Germany) and sterile compresses. Dressings were changed every second day under sedation (as described above).
Bacterial Background of each chamber was measured every second day, to detect potential contamination. Only one contaminated chamber was detected. Seven days post operation ten chambers were inoculated with bacteria.
For bacteria progeny Staphylococcus aureus (ATCC 25923) was plated on LB-Agar plate and incubated at 37° C. for 18 hours. One colony was picked and transfered into 3 ml LB-Medium for over night culture at 37° C. at 300 rpm. Over night culture was diluted in 50 ml fresh LB-Medium and incubated for 2.5 hours at 37° C. at 200 rpm.
Bacteria were pelleted, 4000 rpm, 5 min, Mergafuge 1.0 R (Heraeus, Hanau, Germany), and resuspended in PBS. Amount of containg bacteria was detremined by OD600 nm-measurement and calculated as follows: Colony forming Unit/ml=OD600 nm×2.5×10^8 (bacteria)
To inoculate one chamber 5×10^8 were used.
The establishment of the infection was proven by the measurement of bacterial counts per chamber. All inoculated chambers were infected after two days. Chamber No. 2 keeps bacteria free.
At day four after infection the antimicrobial effect of the testing substrate was measured in a time course of 4 hours in duration. […]

Turning to `CCC[C@@H]1C[C@@H](C(=O)N[C@@H]([C@H]2O[C@H](SC)[C@H](O)[C@@H](O)[C@H]2O)[C@H](C)Cl)N(C)C1` [Clindamycin], the “Minimal Inhibitory Concentration (MIC)” value amounted to 64 in assay [1] and 0.12 in assay [2].
The like results for `CC[C@H]1OC(=O)[C@H](C)[C@@H](O[C@H]2C[C@@](C)(OC)[C@@H](O)[C@H](C)O2)[C@H](C)[C@@H](O[C@@H]2O[C@H](C)C[C@H](N(C)C)[C@H]2O)[C@](C)(O)C[C@@H](C)C(=O)[C@H](C)[C@@H](O)[C@]1(C)O` [Erythromycin] were, in that order, 64 and 0.25.
On to “Protegrin 1: Synthetic Protegrin 1 (Charité, Humboldt Universität Berlin), used as a positive control at 100 micrograms/ml (RGGRLCYCRRRFCVCVGR; ends and bridges not checked; cysteine pairing not given here; UniProt P32194 131-148, looked up) [reference compound]”, for which the “Mean CFU per ml sample volume (chamber fluid)” value in assay [3] (0 hours) is on record as 13200000 CFU/ml; in assay [3] (1 hour) it was 88667 CFU/ml; in assay [3] (2 hours) it was 12800 CFU/ml; in assay [3] (3 hours) it was 3525 CFU/ml; in assay [3] (4 hours), 129000 CFU/ml.
